Reference: patent US11180498B2, “Substituted pyrrolo[2,3-b]pyridines, pyrazolo[3,4-d]pyrimidines and [1,2,3]triazolo[4,5-b]pyridines as potent antivirals” (The Regents of the University of California, priority 2017, dated 2021)

Experiments:
Coxsackievirus B3-H3 = experiment: Virus CPE assay, CVB3-H3 in HeLa-RW cells; format: cell-based; conditions: >10/>25 = no antiviral activity at 10 or 25 μM
Poliovirus 1 = experiment: microbe, parasite or virus in culture; format: cell-based; conditions: Enterovirus C, read-out: EC50 PV1
Poliovirus 3 = experiment: microbe, parasite or virus in culture; format: cell-based; conditions: Enterovirus C, read-out: EC50 PV3
Coxsackievirus B1 = experiment: Virus CPE assay, CVB1 in HeLa-RW cells; format: cell-based; conditions: Enterovirus B, >10 = no antiviral activity at 10 μM
Coxsackievirus B2 = experiment: Virus CPE assay, CVB2 in HeLa-RW cells; format: cell-based; conditions: Enterovirus B, >10 = no antiviral activity at 10 μM
Coxsackievirus B4 = experiment: Virus CPE assay, CVB4 in HeLa-RW cells; format: cell-based; conditions: Enterovirus B, >10 = no antiviral activity at 10 μM
Coxsackievirus B5 = experiment: Virus CPE assay, CVB5 in HeLa-RW cells; format: cell-based; conditions: Enterovirus B, >10 = no antiviral activity at 10 μM
Enterovirus 71 = experiment: Virus CPE assay, EV71 in LLC cells; format: cell-based; conditions: Enterovirus A, >10 = no antiviral activity at 10 μM
Coxsackievirus A9 = experiment: Virus CPE assay, COX A9 in LLC cells; format: cell-based; conditions: Enterovirus B, >10 = no antiviral activity at 10 μM
Echovirus 6 = experiment: Virus CPE assay, ECHO06 in LLC cells; format: cell-based; conditions: Enterovirus B, >10 = no antiviral activity at 10 μM
Echovirus 7 = experiment: Virus CPE assay, ECHO07 in LLC cells; format: cell-based; conditions: Enterovirus B, >10 = no antiviral activity at 10 μM
Echovirus 9 = experiment: Virus CPE assay, ECHO09 in LLC cells; format: cell-based; conditions: Enterovirus B, >10 = no antiviral activity at 10 μM
Echovirus 11 = experiment: Virus CPE assay, ECHO11 in LLC cells; format: cell-based; conditions: Enterovirus B, >10 = no antiviral activity at 10 μM
Echovirus 25 = experiment: Virus CPE assay, ECHO25 in LLC cells; format: cell-based; conditions: Enterovirus B, >10 = no antiviral activity at 10 μM
Echovirus 30 = experiment: Virus CPE assay, ECHO30 in LLC cells; format: cell-based; conditions: Enterovirus B, >10 = no antiviral activity at 10 μM
HeLa-RW cells = experiment: Cytotoxicity (CC50) in HeLa-RW cells; format: cell-based; conditions: concentration that reduces host cell viability by 50%
Protocol: (§1) Each compound is initially tested against each virus at 10 μM in a virus CPE assay. A compound that is active against a virus, protecting the cells from CPE, is further evaluated for its 50% effective concentration (EC50) value and 50% cytotoxicity concentration (CC50) value. Serial 2-fold dilutions of an active compound are prepared. For EC50 value determination, a 7-point dose-response curve is constructed using a virus CPE assay and EC50 value is estimated using four parameter model or sigmoidal model. For CC50 value determination, cells are incubated with serial 2-fold dilutions of a compound for the same period as the virus CPE assay, and then cells were fixed, stained and read as in the virus CPE assay.
(§2) Table 3 provides the compound concentration in μM units that reduces cell viability of the host cell by 50% (CC50) for certain compounds of the present technology for HeLa-RW and LLC cells. Blank cells indicate that the cytotoxicity assessment is not yet complete.

LLC cells = experiment: Cytotoxicity (CC50) in LLC cells; format: cell-based; conditions: concentration that reduces host cell viability by 50%
Protocol: as §1, §2

[1] = system: Enterovirus D68 strain Fermon; experiment: Virus CPE assay, Enterovirus D68 Fermon in RD cells; format: cell-based; conditions: Enterovirus D
Protocol: (§3) Cells growing in 96 well plates are infected with a given virus at given low multiplicities of infection pre-determined to result in 100% cytopathic effects (CPE) in the cultures after 3-4 days incubation. Cultures are monitored daily for microscopic signs of typical CPE: rounding of cells and detachment. […] Dead cells and debris are washed out and the remaining blue stain intensity in each well is quantified by spectrophotometry at a wavelength of 590 nm (OD590) as a measurement of viability. […] Serial 2-fold dilutions of an active compound are prepared. […] Table 4 provides the results of cell-based assays with RD cells evaluating the antiviral activities of certain representative compounds of the present technology with certain strains of Enterovirus D68, namely strains Fermon (“D68/Fermon”), US/Mo/14-18949 (“D68/US/Mo/14-18949”), and US/KY/14-18953 (“D68/US/KY/14-18953”). The values indicated in the strain columns are EC50 values in μM units. The CC50 values (in μM units) for RD cells are also provided for evaluation of SI50.

[2] = system: Enterovirus D68 strain US/Mo/14-18949; experiment: Virus CPE assay, Enterovirus D68 US/Mo/14-18949 in RD cells; format: cell-based; conditions: for EC50: Enterovirus D, RD cells
Protocol: as §3

[3] = system: Enterovirus D68 strain US/KY/14-18953; experiment: Virus CPE assay, Enterovirus D68 US/KY/14-18953 in RD cells; format: cell-based; conditions: Enterovirus D
Protocol: as §3

[4] = Cytotoxicity (CC50) in RD cells; format: cell-based; conditions: human
Protocol: as §1
Table 4 provides the results of cell-based assays with RD cells evaluating the antiviral activities of certain representative compounds of the present technology with certain strains of Enterovirus D68, namely strains Fermon (“D68/Fermon”), US/Mo/14-18949 (“D68/US/Mo/14-18949”), and US/KY/14-18953 (“D68/US/KY/14-18953”). The values indicated in the strain columns are EC50 values in μM units. The CC50 values (in μM units) for RD cells are also provided for evaluation of SI50.

[5] = Cytotoxicity (CC50) in LLC cells; format: cell-based; conditions: LLC cells; concentration that reduces host cell viability by 50%
Protocol: as §1, §2

Enterovirus D68 = experiment: Antiviral cell-based assays, summary for at least one strain; conditions: Enterovirus D, not named, read-out: EC50 against at least one strain
Protocol: as §3

| SMILES | EC50 (Coxsackievirus B3-H3) | EC50 (Poliovirus 1) | EC50 (Poliovirus 3) | EC50 (Coxsackievirus B1) | EC50 (Coxsackievirus B2) | EC50 (Coxsackievirus B4) | EC50 (Coxsackievirus B5) | EC50 (Enterovirus 71) | EC50 (Coxsackievirus A9) | EC50 (Echovirus 6) | EC50 (Echovirus 7) | EC50 (Echovirus 9) | EC50 (Echovirus 11) | EC50 (Echovirus 25) | EC50 (Echovirus 30) | CC50 (HeLa-RW cells) | CC50 (LLC cells) | EC50 [1] | EC50 [3] | CC50 [4] | also measured |
| --- | --- | --- | --- | --- | --- | --- | --- | --- | --- | --- | --- | --- | --- | --- | --- | --- | --- | --- | --- | --- | --- |
| CC(C)n1ncc2c(C(=O)Nc3ccc(F)cc3)nc(-c3cccs3)nc21 [JX-036] | > 10 µM | > 10 µM | > 10 µM | > 10 µM | > 10 µM | > 10 µM | > 10 µM | > 10 µM | > 10 µM | > 10 µM | > 10 µM | > 10 µM | > 10 µM | > 10 µM | > 10 µM |  |  |  |  |  |  |
| CC(C)n1ncc2c(C(=O)Nc3ccccc3F)cc(-c3cccs3)nc21 [JX-001, reference compound] | 1.4 ± 0.6 µM | 7 µM | 7 µM | 2.4 ± 0.2 µM | 2.8 ± 0.4 µM | 2.3 µM | 2.3 µM | 2.3 ± 1.2 µM | 2.6 ± 0.9 µM | 2.3 ± 0.9 µM | 2.4 µM | 2.1 ± 1.2 µM | 1.5 ± 0.4 µM | 3 µM | 1.2 µM | 12.5 µM | 50 µM | 0.35 ± 0.05 µM | 0.5 ± 0.17 µM | 200 µM | EC50 [2]: 0.33 ± 0.05 µM |
| CC(C)n1ccc2c(C(=O)Nc3ccncc3)cc(-c3cccs3)nc21 [JX-063] | > 10 µM | > 10 µM | > 10 µM | > 10 µM | > 10 µM | > 10 µM | > 10 µM |  |  |  |  |  |  |  |  |  |  |  |  |  |  |
| CC(C)n1ccc2c(C(=O)Nc3ccc(F)cc3)cc(-c3cccs3)nc21 [JX-037] | 3.1 ± 0.1 µM | > 25 µM | > 25 µM | 3.6 ± 0.6 µM | 3.6 ± 0.6 µM | 3.1 ± 0.1 µM | 2.7 ± 0.6 µM | 2.2 µM |  |  |  |  |  |  |  |  |  | 0.86 ± 0.31 µM | 1.1 ± 0.3 µM | > 200 µM | CC50 [5]: 100 µM; SI ([2]; Enterovirus D68/US/Mo/14-18949, >200/0.57): over 350; EC50 [2]: 0.57 ± 0.15 µM; EC50 (Enterovirus D68): < 1 µM |
| CC(C)n1ccc2c(C(=O)Nc3cccnc3)cc(-c3cccs3)nc21 [JX-062] | 1.3 µM | > 10 µM | > 10 µM | 1.2 µM | 1.2 µM | 1.2 µM | 1.2 µM | 0.8 µM |  |  |  | 0.4 µM | 1.2 µM |  |  | 18 µM | 25 µM | 0.16 ± 0.03 µM | 0.26 ± 0.07 µM | 25 µM | EC50 [2]: 0.13 ± 0.03 µM; EC50 (Enterovirus D68): < 1 µM |
| CC(C)n1nnc2c(C(=O)Nc3ccc(F)cc3)cc(-c3cccs3)nc21 [JX-035] | > 10 µM | > 10 µM | > 10 µM | > 10 µM | > 10 µM | > 10 µM | > 10 µM | > 10 µM | > 10 µM | > 10 µM | > 10 µM | > 10 µM | > 10 µM | > 10 µM | > 10 µM |  |  |  |  |  |  |
| CC(C)n1ccc2c(C(=O)Nc3ccccn3)cc(-c3cccs3)nc21 [JX-072] | 2.2 ± 0.4 µM | > 10 µM | > 10 µM | 1.56 µM | 2.33 µM |  |  | 1.2 µM |  |  | 3 µM |  |  |  |  | 18.8 µM | > 200 µM | < 0.4 µM | 0.6 µM | 25 µM | EC50 (Enterovirus D68): < 1 µM |
